Measured values as given in article PMC11876007, “Design and Synthesis of Hydroxamate-Based Matrix Metalloproteinase-2 Inhibitors for Anti-Photoaging” (Journal of Microbiology and Biotechnology, 2025).
Where “and” joins values, the source holds several entries; their conditions need not be identical. Identical values can stand only once. Entries after “also recorded” stand apart in the source; their conditions may differ.

How the values were obtained:
NHF cells = experiment: Gelatin degradation assay (fluorescent gelatin, NHF cells); format: cell-based, human; conditions: 1 μM, four days, fluorescent-gelatin-coated plates
Description: Gelatin digestion was assessed using the QCM™ Gelatin Invadopodia Assay (#ECM670) (Sigma-Aldrich, USA). Plates were first coated with poly-L-lysine, activated with glutaraldehyde, and then coated with fluorescein-labelled gelatin. NHF cells were seeded onto the fluorescent gelatin-coated plates and incubated for 4 days. After incubation, the cells were fixed with formaldehyde and stained with DAPI for normalization based on cell number. Fluorescent gelatin levels were measured by detecting fluorescent intensity at an excitation wavelength of 492 nm and an emission wavelength of 518 nm using a Bio Tek Synergy H1 fluorescence reader (Agilent Technologies, USA). The residual gelatin (RG) was calculated by subtracting the fluorescent value of the wells with seeded cells from the values of wells without cells. This was normalized using the DAPI fluorescence to account for cell numbers per well. Gelatin degradation (%) was determined as: Gelatin degradation = (RGinhibitor/RGcontrol) × 100.

MMP-9 = molecular target: T1, MMP-9 (Homo sapiens, UniProt P14780); experiment: Zymogram assay, MMP-9 in HaCaT cell conditioned media; format: biochemical; conditions: keratinocyte-conditioned media; 50 nM developing phase and 500 nM 48 h, Fig. 4B and 4D
T1 construct: endogenous in cells; host or cells: HaCaT keratinocytes (conditioned medium)
T1 sequence (P14780 94-707): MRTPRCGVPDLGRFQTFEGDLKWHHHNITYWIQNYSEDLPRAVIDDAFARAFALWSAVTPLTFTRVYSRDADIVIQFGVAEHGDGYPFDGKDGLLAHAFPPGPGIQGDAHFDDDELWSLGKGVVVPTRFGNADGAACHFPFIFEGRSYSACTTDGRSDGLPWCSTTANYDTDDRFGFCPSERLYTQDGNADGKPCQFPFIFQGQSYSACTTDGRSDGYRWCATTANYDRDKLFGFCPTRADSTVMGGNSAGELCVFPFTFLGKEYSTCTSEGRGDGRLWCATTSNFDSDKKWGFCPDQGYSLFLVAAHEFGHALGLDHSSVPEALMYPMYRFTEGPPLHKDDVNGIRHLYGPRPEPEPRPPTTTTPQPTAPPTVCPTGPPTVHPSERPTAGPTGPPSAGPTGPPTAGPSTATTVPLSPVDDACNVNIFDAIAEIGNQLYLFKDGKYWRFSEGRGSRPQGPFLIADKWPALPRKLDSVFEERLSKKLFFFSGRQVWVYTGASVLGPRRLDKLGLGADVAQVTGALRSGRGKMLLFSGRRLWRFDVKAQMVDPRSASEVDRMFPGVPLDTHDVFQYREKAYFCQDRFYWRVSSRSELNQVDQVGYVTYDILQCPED

MMP-2 = molecular target: T2, MMP-2 (Homo sapiens, UniProt P08253); experiment: In vitro MMP-2 inhibition assay (Abcam kit ab139446); format: biochemical; conditions: for MMP-2 inhibition (in words): 50 nM, Fig. 3A; for IC50: apparent IC50, concentration-dependent inhibition, Fig. 2B; for Selectivity of inhibition, MMP-2 over MMP-1 (in words): tested at 500 nM for MMP-1 and 50 nM for MMP-2
T2 construct: purchased Abcam ab139446
T2 sequence (P08253 110-465 limits assumed): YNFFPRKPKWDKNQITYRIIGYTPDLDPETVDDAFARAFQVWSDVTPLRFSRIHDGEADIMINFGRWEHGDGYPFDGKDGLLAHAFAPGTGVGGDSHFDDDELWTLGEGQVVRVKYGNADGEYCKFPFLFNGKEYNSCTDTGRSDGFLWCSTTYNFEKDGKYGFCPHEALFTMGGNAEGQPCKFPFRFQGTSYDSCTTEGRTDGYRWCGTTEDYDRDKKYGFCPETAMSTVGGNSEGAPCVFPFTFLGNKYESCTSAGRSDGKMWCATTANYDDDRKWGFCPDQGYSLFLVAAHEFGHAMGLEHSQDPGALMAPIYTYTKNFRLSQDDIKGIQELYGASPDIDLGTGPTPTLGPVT
Description: (§1) Test inhibitors were incubated with MMP enzymes and assay buffer at 37 °C for 30 min. Enzyme reaction was initiated by adding substrate, and MMP activity was measured by monitoring optical density (OD) at 412 nm for 20 min at 1-min intervals. The residual activity (%) was calculated as: residual activity = (Vinhibitor/Vcontrol) × 100. The reaction velocity (V) in OD/min were determined by the slope of a line fit to the linear portion of the measured values.

MMP-1 = molecular target: T3, MMP-1 (Homo sapiens, UniProt P03956); experiment: In vitro MMP-1 inhibition assay (Abcam kit ab139443); format: biochemical; conditions: for MMP-1 inhibition (in words): 500 nM, Fig. 3A
T3 construct: purchased Abcam ab139443
T3 sequence (P03956 100-269 limits assumed): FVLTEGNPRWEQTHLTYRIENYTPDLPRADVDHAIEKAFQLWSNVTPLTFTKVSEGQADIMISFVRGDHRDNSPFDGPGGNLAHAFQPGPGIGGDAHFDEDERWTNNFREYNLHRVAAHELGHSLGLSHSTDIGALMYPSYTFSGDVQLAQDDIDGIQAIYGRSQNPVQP
Description: as §1

CC(=NO)c1ccc(S(=O)(=O)N2CCCCC2C(=O)NO)cc1 (centres unmarked) [Compound 4an, N-hydroxy-1-((4-(1-(hydroxyimino)ethyl)phenyl)sulfonyl)piperidine-2-carboxamide]
Gelatin degradation per cell (in words) (NHF cells): statistically significant reductions
MMP-9 inhibition, zymogram (in words) (MMP-9): effectively inhibited both MMP-2 and MMP-9

O=C(NO)C(Cc1ccccc1)NS(=O)(=O)c1ccc(-c2ccccc2)cc1 (centres unmarked) [Compound 1n, 2-([1,1'-biphenyl]-4-sulfonamido)-N-hydroxy-3-phenylpropanamide]
MMP-2 inhibition (in words) (MMP-2): lower inhibitory activity against MMP-2

O=C(NO)C1CCCCN1S(=O)(=O)c1ccc(-c2ccccc2)cc1 (centres unmarked) [Compound 1ad, 1-([1,1'-biphenyl]-4-ylsulfonyl)-N-hydroxypiperidine-2-carboxamide]
Gelatin degradation per cell (in words) (NHF cells): statistically significant reductions
MMP-9 inhibition, zymogram (in words) (MMP-9): effectively inhibited both MMP-2 and MMP-9

CCCCOc1ccc(S(=O)(=O)N2CCCCC2C(=O)NO)cc1 (centres unmarked) [Compound 1af, 1-((4-butoxyphenyl)sulfonyl)-N-hydroxypiperidine-2-carboxamide]
Gelatin degradation per cell (in words) (NHF cells): statistically significant reductions
MMP-9 inhibition, zymogram (in words) (MMP-9): effectively inhibited both MMP-2 and MMP-9

CCCCOc1ccc(S(=O)(=O)NC(C(=O)NO)C(C)C)cc1 (centres unmarked) [Compound 1d, 2-((4-butoxyphenyl)sulfonamido)-N-hydroxy-3-methylbutanamide]
IC50 (MMP-2): 8.1 nM and < 10 nM
Selectivity of inhibition, MMP-2 over MMP-1 (in words) (MMP-2): selectively inhibited MMP-2 over MMP-1; also recorded: strong selectivity for MMP-2

Cc1ccc(S(=O)(=O)N2CCCCC2C(=O)NO)cc1 (centres unmarked) [Compound 1aj, N-hydroxy-1-tosylpiperidine-2-carboxamide]
Selectivity of inhibition, MMP-2 over MMP-1 (in words) (MMP-2): selective inhibition of MMP-2

CCCCOc1ccc(S(=O)(=O)NC(CC(C)C)C(=O)NO)cc1 (centres unmarked) [Compound 1j, 2-((4-butoxyphenyl)sulfonamido)-N-hydroxy-4-methylpentanamide]
IC50 (MMP-2): 7.8 nM and < 10 nM
Selectivity of inhibition, MMP-2 over MMP-1 (in words) (MMP-2): selectively inhibited MMP-2 over MMP-1; also recorded: strong selectivity for MMP-2

CCCCOc1ccc(S(=O)(=O)NC(Cc2ccccc2)C(=O)NO)cc1 (centres unmarked) [Compound 1p, 2-((4-butoxyphenyl)sulfonamido)-N-hydroxy-3-phenylpropanamide]
MMP-2 inhibition (in words) (MMP-2): lower inhibitory activity against MMP-2

CC(C)C(NS(=O)(=O)c1ccc(-c2ccccc2)cc1)C(=O)NO (centres unmarked) [Compound 1b, 2-([1,1'-biphenyl]-4-sulfonamido)-N-hydroxy-3-methylbutanamide]
IC50 (MMP-2): 5.1 nM and < 10 nM
Selectivity of inhibition, MMP-2 over MMP-1 (in words) (MMP-2): selectively inhibited MMP-2 over MMP-1
MMP-1 inhibition (in words) (MMP-1): weak MMP-1 inhibition
IC50 (MMP-1; apparent IC50, concentration-dependent inhibition, Fig. 2B): 188 nM

O=C(NO)C1CCCN1S(=O)(=O)c1ccc(-c2ccccc2)cc1 (centres unmarked) [Compound 1t, 1-([1,1'-biphenyl]-4-ylsulfonyl)-N-hydroxypyrrolidine-2-carboxamide]
IC50 (MMP-2): 18.9 nM
Selectivity of inhibition, MMP-2 over MMP-1 (in words) (MMP-2): selectively inhibited MMP-2 over MMP-1
MMP-1 inhibition (in words) (MMP-1): weaker MMP-1 inhibition

CCCCOc1ccc(S(=O)(=O)N2CCCC2C(=O)NO)cc1 (centres unmarked) [Compound 1v, 1-((4-butoxyphenyl)sulfonyl)-N-hydroxypyrrolidine-2-carboxamide]
IC50 (MMP-2): 32.6 nM
Selectivity of inhibition, MMP-2 over MMP-1 (in words) (MMP-2): selectively inhibited MMP-2 over MMP-1

O=C(NO)C1CCCCN1S(=O)(=O)c1ccccc1 (centres unmarked) [Compound 1ac, N-hydroxy-1-(phenylsulfonyl)piperidine-2-carboxamide]
MMP-1 inhibition (in words) (MMP-1): maintained MMP-1 inhibition
